Article PMC9496282, “Analysis of Phosphatase Activity in a Droplet-Based Microfluidic Chip” (Biosensors, 2022)

Target: T1, dual specificity phosphatase 22 (DUSP22) (Homo sapiens, UniProt Q9NRW4)
T1 construct: recombinant DUSP22 from pET-28a(+)-DUSP22, purified from E. coli BL21(DE3)
T1 sequence (Q9NRW4 2-184): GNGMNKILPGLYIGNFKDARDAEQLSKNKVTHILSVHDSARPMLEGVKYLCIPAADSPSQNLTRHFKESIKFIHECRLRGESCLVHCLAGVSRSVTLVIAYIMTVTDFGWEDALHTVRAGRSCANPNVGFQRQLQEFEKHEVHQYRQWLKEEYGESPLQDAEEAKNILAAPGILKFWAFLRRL
Assay: fluorescent 3-OMFP phosphatase inhibition assay in droplet microfluidic chip (microwell plate IC50 […])
Type: biochemical

## CCN(N=O)c1ccc(O)c(O)c1 [ethyl-3,4-dephostatin]
  IC50: 5.79 ± 1.09 µM
